Where two headings read alike, the source gives them in different places.
Experiments:
TAS2R14 [1] = molecular target: T1, TAS2R14 (Homo sapiens, UniProt Q9NYV8); assay: Fluo-4 calcium mobilization, HEK293-TAS2R14-G16gust44 cells; type: cell-based
T1 construct: full-length cDNA, stably expressed in HEK293 cells with chimeric G16gust44 (G alpha 16 fused with 44 amino acids of gustducin)
T1 sequence (Q9NYV8 1-317): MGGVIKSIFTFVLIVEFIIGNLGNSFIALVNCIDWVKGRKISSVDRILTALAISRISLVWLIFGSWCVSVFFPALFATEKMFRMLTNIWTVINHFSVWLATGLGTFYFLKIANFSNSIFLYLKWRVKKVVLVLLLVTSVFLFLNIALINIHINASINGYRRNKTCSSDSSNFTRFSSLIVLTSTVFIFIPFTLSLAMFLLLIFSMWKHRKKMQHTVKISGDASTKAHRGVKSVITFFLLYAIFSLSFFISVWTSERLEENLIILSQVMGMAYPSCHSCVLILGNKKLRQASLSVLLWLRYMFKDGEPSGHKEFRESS

TAS2R14 [2] = molecular target: T1, TAS2R14; assay: Fluo-4 calcium mobilization, antagonist mode, HEK293-TAS2R14-G16gust44 cells; type: cell-based; conditions: in the presence of 10.0 μM aristolochic acid A as agonist, 37 °C, 2.5 mM probenecid in loading buffer

COc1cccc2c1cc([N+](=O)[O-])c1c(C(=O)O)cc3c(c12)OCO3 [AAA, aristolochic acid A] was tested, and the EC50 (TAS2R14 [1]) was 2 µM.

Work on C[C@H]1O[C@@H](O[C@H]2CC[C@@]3(C)[C@@H](CC[C@]4(C)[C@@H]3C=CC3=C5CC(C)(C)CC[C@]5(CO)C(O)C[C@]34C)[C@]2(C)CO)[C@H](O)[C@@H](O[C@@H]2O[C@H](CO)[C@@H](O)[C@H](O)[C@H]2O)[C@H]1O (stereo partly drawn) [SSb, Saikosaponin b] yielded an EC50 (TAS2R14 [1]; read-out: EC50) of 4.9 µM.

With sulfamoyl-benzoic acid [SBA] the IC50 (TAS2R14 [2]) was 18.5 µM.

Reference: PMC5610306, “Identification of a specific agonist of human TAS2R14 from Radix Bupleuri through virtual screening, functional evaluation and binding studies” (Scientific Reports, 2017)
